# Values of other authors, collected in patent publication US20070258969A1, “Compositions and methods for targeting metastatic tumors using multivalent ligand-linked carbohydrate polymers” (priority 2004, published 2007).
# Legend:
# [1] = system: L-1 sarcoma cells; settings: in vivo
# [2] = system: B16 melanoma cells; settings: in vivo
Molecule,liver metastasis of L-1 sarcoma cells [1],metastasis of B16 melanoma cells [2]
O=C[C@H](O)[C@@H](O)[C@@H](O)[C@H](O)CO [D-galactose],inhibited liver metastasis,
arabinogalactose,inhibited liver metastasis,
CC(=O)N[C@H]1[C@H](O[C@H]2[C@@H](O)[C@@H](CO)O[C@@H](O[C@H]3[C@H](O)[C@@H](O)C(O)O[C@@H]3CO)[C@@H]2O)O[C@H](CO)[C@@H](O)[C@@H]1O[C@@H]1O[C@H](CO)[C@H](O)[C@H](O)[C@H]1O (stereo partly shown) [lacto-N-tetrose],,inhibit metastasis
CO[C@H]1O[C@H](CO)[C@@H](O[C@@H]2O[C@H](CO)[C@H](O)[C@H](O)[C@H]2O)[C@H](O)[C@H]1O [methyl-α-D-lactoside],,inhibit metastasis
